{"source": "patent US9006181B2", "about": "(The Administrators of the Tulane Educational Fund, priority 2004, dated 2015)", "key": {"[1]": {"tested_on": "TNF-α production by human proximal tubule cells", "experiment": "LC-induced TNF-α production by renal tubule cells, ELISA", "type": "cell-based", "protocol": "TNF-α concentrations were determined by ELISA.\nVarying doses of dexamethasone, PACAP38, MAPK kinase inhibitor (U0126), or PDTC were added to renal tubule cell cultures along with 50 μM LC to determine the effects on LC-induced TNF-α production, as measured by ELISA (FIG. 4)."}, "[2]": {"tested_on": "p38 MAPK in human proximal tubule cells", "experiment": "LC-induced p38 MAPK activation, ELISA for phosphorylated p38 MAPK", "type": "cell-based", "from_the_text": "Cytokine production may depend upon activation (phosphorylation) of p38 MAP kinase (stress-activated protein kinase 2a) isoforms."}, "[3]": {"tested_on": "IL-6 production by human proximal tubule cells", "experiment": "LC-induced IL6 production by renal tubule cells, ELISA", "type": "cell-based", "settings": "for magnitude of IL6 suppression compared with dexamethasone and SB202190: 10^−9 M PACAP vs 10^−9 M dexamethasone or 10 μM SB202190", "protocol": "The overproduction of IL6 by neoplastic cells is strongly associated with the growth of multiple myeloma. Kawano M, et al. Nature. 332: 83 (1988). Varying doses of PACAP38, dexamethasone, or p38 MAPK kinase inhibitor (SB202190) were added to renal tubule cell cultures along with 50 μM LC to determine the effects on LC-induced IL6 production, as measured by ELISA (FIG. 11)."}, "[4]": {"tested_on": "NCI-H929 human myeloma cell line", "experiment": "Myeloma cell growth, colorimetric BrdU incorporation", "type": "cell-based", "protocol": "A human myeloma cell line (NCI-H929), which produced the lambda (λ) light chains used supra, were grown for 3 days in media containing non-inactivated media, and in the presence or absence of dexamethasone or PACAP38 (FIG. 8). Cell growth was determined by a colorimetric assay that measured the degree of 5-bromo-2-deoxyuridine (BrdU) incorporation by the cells. […] The therapeutic actions of dexamethasone in the treatment of multiple myeloma are attributed to stimulation of apoptosis."}, "[5]": {"tested_on": "ERK1/2 in human proximal tubule cells", "experiment": "LC-induced activation of ERK1/2, phospho-ERK1/2 ELISA", "type": "cell-based", "settings": "dexamethasone 10^−7 M, PACAP38 10^−9 M; 50 μM LC, 3 days", "protocol": "The ERK-type MAP kinases (ERK1 and ERK2 or, collectively, ERK1/2) are activated by phosphorylation. Evidence of such activation is visualized by antibody detection techniques, using antibody specific for the phosphorylated forms of ERK1/2. […] ERK1/2 activation was determined by ELISA."}, "[6]": {"tested_on": "SV40-immortalized human renal proximal tubule cell cultures", "experiment": "Immunoglobulin light chain (LC)-induced damage of human renal tubule cells: morphology and survival", "description": "SV40-immortalized human renal proximal tubule cell cultures were incubated with immunoglobulin light chains (LC) at 50 μM for 3 days (FIG. 2)."}, "[7]": {"tested_on": "NFκB p50 subunit in human proximal tubule cells", "experiment": "LC-induced activation of NFκB p50 subunit, ELISA", "type": "cell-based", "settings": "dexamethasone 10^−7 M, PACAP38 10^−9 M; 50 μM LC, 3 days", "protocol": "Human renal tubule cells in vitro were incubated with 50 μM LC for 3 days in the presence or absence of dexamethasone or PACAP38, and assayed by ELISA for activation of NFκB subunits (FIGS. 6 & 7). […] A human Raji cell line (B lymphocyte, Burkitt's lymphoma) was used for positive controls."}, "[8]": {"target": "T1, PAC1-R (type I PACAP receptor) (Homo sapiens, UniProt P41586)", "T1 sequence (P41586 21-468)": "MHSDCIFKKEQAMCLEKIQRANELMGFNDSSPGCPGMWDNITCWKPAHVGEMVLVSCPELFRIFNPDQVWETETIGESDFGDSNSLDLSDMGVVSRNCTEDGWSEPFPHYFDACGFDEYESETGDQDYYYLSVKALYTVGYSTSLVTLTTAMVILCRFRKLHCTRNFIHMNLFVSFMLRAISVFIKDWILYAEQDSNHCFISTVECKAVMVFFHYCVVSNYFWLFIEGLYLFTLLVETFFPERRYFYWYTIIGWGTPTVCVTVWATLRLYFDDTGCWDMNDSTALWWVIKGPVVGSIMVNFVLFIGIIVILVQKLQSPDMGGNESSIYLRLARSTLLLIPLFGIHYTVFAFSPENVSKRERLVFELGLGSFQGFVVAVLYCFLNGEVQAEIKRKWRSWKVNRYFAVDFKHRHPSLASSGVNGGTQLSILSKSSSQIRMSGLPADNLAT", "settings": "cited from earlier work"}}, "note": "Where “and” joins values, the source holds several entries; their conditions need not be identical. Identical values can stand only once. Entries after “also recorded” stand apart in the source; their conditions may differ. Where no end group is shown, it is not given here."}
{"compound": "S=C(S)N1CCCC1", "note": "[PDTC, pyrrolidine dithiocarbamate, reference compound]", "values": [{"measurement": "suppression of LC-induced TNF-α production", "setting": "[1]; PDTC 0.125 μM and 12.5 μM, both levels", "value": "completely suppressed"}]}
{"compound": "Oc1ccc(-c2nc(-c3ccncc3)c(-c3ccc(F)cc3)[nH]2)cc1", "note": "[SB202190, reference compound]", "values": [{"measurement": "reduction of p38 MAPK activation", "setting": "[2]; SB202190 10 μM", "value": "reduction produced by 10 μM SB202190"}]}
{"compound": "N#CC(=C(/N)Sc1ccccc1N)/C(C#N)=C(\\N)Sc1ccccc1N", "note": "[U0126, reference compound]", "values": [{"measurement": "suppression of LC-induced TNF-α production", "setting": "[1]; U0126 high dose", "value": "completely suppressed"}]}
{"compound": "C[C@@H]1C[C@H]2[C@@H]3CCC4=CC(=O)C=C[C@]4(C)[C@@]3(F)[C@@H](O)C[C@]2(C)[C@@]1(O)C(=O)CO", "note": "[dexamethasone, reference compound]", "values": [{"measurement": "concentration achieving maximal suppression of TNF-α production", "setting": "[1]; 50 μM LC", "value": "10^−5 M"}, {"measurement": "concentration giving comparable magnitude of TNF-α suppression (dexamethasone vs PACAP38)", "setting": "[1]; 50 μM LC", "value": "10^−9 M"}, {"measurement": "concentrations showing comparable activity in suppressing LC-induced TNF-α production (pair used in FIGS. 5-7)", "setting": "[1]; 50 μM LC", "value": "10^−7 M"}]}
{"compound": "PACAP: pituitary adenylate cyclase activating polypeptide; exists as PACAP38 and PACAP27; in Example 8 stands for PACAP38", "values": [{"measurement": "magnitude of IL6 suppression compared with dexamethasone and SB202190", "setting": "[3]", "value": "greater than that observed with either 10^−9 M dexamethasone or 10 μM SB202190"}]}
{"compound": "PACAP[1-38]-NH2 (HSDGIFTDSYSRYRKQMAVKKYLAAVLGKRYKQRVKNK-NH2) [PACAP38]", "values": [{"measurement": "concentration of maximal suppression of tumor cell growth", "setting": "[4]; 3 days", "value": "10^−7 M"}, {"measurement": "lowest concentration at which tumor cell growth tended to be suppressed", "setting": "[4]; 3 days", "value": "10^−13 M"}, {"measurement": "suppression of myeloma cell growth", "setting": "[4]; 3 days, media with non-inactivated serum", "value": "suppressed growth of myeloma cells in cultures with approximately the same efficacy; also recorded: suppressed cell growth significantly; also recorded: dose-dependent suppression of myeloma cell growth at concentrations significantly lower than dexamethasone"}, {"measurement": "growth suppressed at levels as low as", "setting": "[4]; media containing non-inactivated serum", "value": "10^−11 M"}, {"measurement": "reduction of p38 MAPK activation compared with SB202190 and dexamethasone", "setting": "[2]; 10 nM PACAP38 vs 10 μM SB202190", "value": "comparable to reduction produced by 10 μM SB202190; also recorded: comparable to that of the specific p38 MAPK inhibitor itself; also recorded: significantly more effective at comparable doses"}, {"measurement": "reduction of LC-induced p38 MAPK activation", "setting": "[2]; varying doses, 50 μM LC, 3 days", "value": "suppressed activation of p38 MAPK; also recorded: reduced significantly, and in a dose-dependent manner; also recorded: suppressed p38 MAPK activation in a dose-dependent manner"}, {"measurement": "concentration achieving maximal suppression of TNF-α production", "setting": "[1]; 50 μM LC", "value": "10^−9 M and 10^−7 M"}, {"measurement": "concentration giving comparable magnitude of TNF-α suppression (dexamethasone vs PACAP38)", "setting": "[1]; 50 μM LC", "value": "10^−13 M"}, {"measurement": "concentrations showing comparable activity in suppressing LC-induced TNF-α production (pair used in FIGS. 5-7)", "setting": "[1]; 50 μM LC", "value": "10^−9 M"}, {"measurement": "suppression of LC-induced TNF-α production at a single concentration", "setting": "[1]; PACAP38 10^−9 M", "value": "dramatic suppression"}, {"measurement": "suppression of LC-induced TNF-α production", "setting": "[1]; varying doses, 50 μM LC, 72 hours", "value": "suppressed by both dexamethasone and PACAP38 in a dose-dependent manner"}, {"measurement": "suppression of LC-induced ERK1/2 activation", "setting": "[5]", "value": "Neither dexamethasone nor PACAP38 suppressed ERK1/2 MAPK activation; also recorded: the difference was not statistically significant; also recorded: neither dexamethasone nor PACAP38 suppressed light chain-induced ERK1/2 activation significantly"}, {"measurement": "effect on LC-induced cell damage (FIG. 2C)", "setting": "[6]; PACAP38 10 nM, LC 50 μM, 3 days", "value": "dramatically attenuated"}, {"measurement": "effect on LC-induced morphological changes (cell shrinkage, necrosis, loss of cell-cell adhesion) and survival", "setting": "[6]; PACAP38 10^−9 M, LC 50 μM, 3 days", "value": "prevented the LC-induced changes; also recorded: dramatic preservation of renal tubule cell survival and morphology"}, {"measurement": "cell morphology with compound alone", "setting": "[6]; PACAP38 alone, 10^−9 M, no LC", "value": "did not cause any alteration of cell morphology; also recorded: did not alter the human renal tubule cell morphology"}, {"measurement": "suppression of LC-induced NFκB p50 subunit activation", "setting": "[7]", "value": "significantly suppressed NFκB p50 activation; also recorded: suppressed by both dexamethasone and PACAP38"}, {"measurement": "magnitude of IL6 suppression compared with dexamethasone and SB202190", "setting": "[3]", "value": "significantly more effective at suppressing IL-6 production than dexamethasone"}, {"measurement": "suppression of LC-stimulated IL6 production", "setting": "[3]; varying doses, 50 μM LC", "value": "significant suppression; also recorded: suppressed by both dexamethasone and PACAP38 in a dose-dependent manner"}]}
{"compound": "vasoactive intestinal peptide [VIP]", "values": [{"measurement": "binding to PAC1-R", "setting": "[8]", "value": "does not bind"}]}
